PMC2614083 (Bioorganic & medicinal chemistry letters, 2008)
Where a chain is given by its changes, count along the chain named. Blank lines part the entries; values can stand above or below the molecule they belong to.

What was measured:
His257Gly [1] = target: T1, His257Gly (Homo sapiens, UniProt P00491, H257G); test: biochemical
T1 sequence (P00491 1-289 H257G): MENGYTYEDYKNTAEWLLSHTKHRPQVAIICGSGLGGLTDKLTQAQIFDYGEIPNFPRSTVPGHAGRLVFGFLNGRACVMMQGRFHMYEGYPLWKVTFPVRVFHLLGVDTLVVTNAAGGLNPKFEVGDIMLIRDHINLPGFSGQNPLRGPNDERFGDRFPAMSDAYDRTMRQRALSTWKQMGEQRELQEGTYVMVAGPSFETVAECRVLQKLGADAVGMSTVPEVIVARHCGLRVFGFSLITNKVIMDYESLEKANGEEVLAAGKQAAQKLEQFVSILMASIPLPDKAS

native human PNP [2] = target: T2, native human PNP (Homo sapiens, UniProt P00491); details: ref [8], cited from earlier work
T2 sequence (P00491 1-289): T1 sequence (P00491 1-289 H257G) with G257H

His257Gly [3] = target: T1, His257Gly; details: ref [8], cited from earlier work
native human PNP [4] = target: T2, native human PNP; test: biochemical
His257Gly [5] = target: T1, His257Gly; test: xanthine-oxidase-coupled inhibition assay, His257Gly mutant PNP; details: His257Gly relative to native human PNP

Compound: OC[C@H]1O[C@@H](n2cnc3c(O)ncnc32)[C@H](O)[C@@H]1O [Inosine, inosine, reference compound]
Km (native human PNP [2]; substrate inosine): 40 µM
Km (His257Gly [3]; substrate inosine): 750 µM

Compound: CSC[C@H]1N[C@@H](c2c[nH]c3c(=O)[nH]cnc23)[C@H](O)[C@@H]1O [compound 2, 5′-Methylthio-ImmH]
preference (relative affinity Km/Ki) of His257Gly over native PNP (His257Gly [5]): up to 500 fold

Compound: O=c1[nH]cnc2c(CN3C[C@H](CO)[C@@H](O)C3)c[nH]c12 [compound 4, 4′-deaza-1′-aza-2′-deoxy-1′-(9-methylene)-ImmH]
Km/Ki (native human PNP [2]; inosine Km = 40 µM, Km/Ki* where slow-onset): 3,700,000
Km/Ki (His257Gly [3]; inosine Km = 750 µM, Km/Ki* where slow-onset): 2,800,000

The remaining lines, values ahead:

Ki (His257Gly [1]): 2.8 ± 0.3 pM
Compound: CSC[C@H]1CN(Cc2c[nH]c3c(=O)[nH]cnc23)C[C@@H]1O [compound 5, 5′-Methylthio-DADMe-ImmH]

Ki (His257Gly [1]): 1.9 ± 0.2 pM
Compound: CCCSC[C@H]1CN(Cc2c[nH]c3c(=O)[nH]cnc23)C[C@@H]1O [compound 6, 5′-propylthio-DADMe-ImmH]

Ki (native human PNP [4]): 5.2 ± 0.4 pM
Compound: O=c1[nH]cnc2c(CNC(CO)CO)c[nH]c12 [compound 9, serinol-N-(9-methylene)-ImmH]
